Reference: patent US6056950A, “Ophthalmic solutions viscosified with tamarind seed polysaccharide” (Farmigea S.p.A., priority 1996, dated 2000)

Test: Residence time / pharmacokinetics of pilocarpine in the tear fluid
Design: species or system male New Zealand albino rabbits
Conditions: rabbit, in vivo
From the text: Specifically, all of the ophthalmic preparations employed in the tests shown herein contain 2.0% by weight of pilocarpine nitrate (PiNO3), but the control preparation referred to in the following table as RS (i.e. reference solution) is an aqueous solution without any thickening agent, while the preparation according to the invention, referred to below as "TSP", is formulated according to Example 2.1.
All of the tests described herein have been carried out on male New Zealand albino rabbits weighing 3-3.5 kg, non anesthesized and kept in standard stabling conditions, at a temperature of 18-20° C. Both the miotic effect and the residence time of the drug in the tear fluid were measured after instillation (at the time=0) of 25 μl of the preparation under study in the lower conjunctival sac of one eye of the rabbits, while the other eye served as a control.
In order to verify whether the product according to the invention was able to prolong, in comparison with other vehicles, the residence of the drug in the precorneal area, the following test was carried out: after instillation of one of the preparations under test, samples of tear fluid (1 μl) were collected, at suitable time intervals, from the rim portion of the lower conjunctival sac, using a microcapillary and avoiding any contact with the corneal epithelium. The tear fluid samples, transferred into microprobes, were diluted with water and analysed by HPLC.
The results of said test are reported, in terms of pilocarpine concentration (μg/μl) detected in the tear fluid as a function of time, in Table 9 and in the corresponding FIG. 7.
The differences in the performance of the various vehicles are better evidenced by the following table, reporting the pharmacokinetic parameters of pilocarpine in the tear fluid, in the various formulations, as calculated from the tests described above. The said parameters are as follows:
Ke : apparent clearance velocity constant
AUCrel : AUC relative to the reference solution
t1/2 : half-life time of the drug in the tear fluid
MRT: mean residence time of the drug in the tear fluid.

## HPMC
  AUC t3min→∞: 23.13 µg·min/µL
  AUCrel, AUC relative to the reference solution: 6.27
  Ke, apparent clearance velocity constant: 0.098 min⁻¹
  MRT, mean residence time: 8.83 min
  increase in half-life with respect to the reference solution: almost of double
3 min
  pilocarpine concentration in the tear fluid: 3.894 µg/µL
5 min
  pilocarpine concentration in the tear fluid: 1.9 µg/µL
10 min
  pilocarpine concentration in the tear fluid: 1.03 µg/µL
15 min
  pilocarpine concentration in the tear fluid: 0.583 µg/µL
30 min
  pilocarpine concentration in the tear fluid: 0.074 µg/µL
45 min
  pilocarpine concentration in the tear fluid: 0.025 µg/µL
60 min
  pilocarpine concentration in the tear fluid: 0.016 µg/µL
